“And” between values parts separate entries of the source, which are not always exact repeats. Equal entries are not always repeated. “Also recorded” adds a separate entry of the source.
How the values were obtained:
Format in all cases: in vivo, rat
[1] = tested on: Vascular Cell Adhesion Molecule-1 (VCAM-1); assay: Assay C: VCAM-1 relative mRNA expression in heart (TaqMan); details: for VCAM, Mean / VCAM: mRNA; for VCAM, Mean: group mean; for VCAM: individual rats
Procedure: (§1) The procedure of Assay B was expanded upon in a further study. […] Myocardial tissue from animals in each treatment group was examined after 7, 14, or 30 days of treatment.
(§2) Potassium chloride supplementation was added to the saline solution in order to prevent the potential hypokalemia associated with aldosterone excess.
(§3) At the time of the surgery, an Alzet 2002 osmotic minipump (Alza Corp., Palo Alto, Calif.) containing either vehicle (9% ethanol/87% propylene glycol/4% dH2O) or 1.0 mg/mL d-aldosterone (Sigma Chemical, St. Louis, Mo.) was inserted subcutaneously at the nape of the neck. Aldosterone was administered at a dose of 0.75 g/hour. […] Animals were sacrificed from each group (n=8-13) after 7, 14, or 30 days of treatment.
(§4) The fluorogenic 5′-nuclease assay (TaqMan PCR) using Applied Biosystems' 7700 Sequence Detection System (Applied Biosystems, Foster City, Calif.) allowed for real time detection/quantitation of a specific gene by monitoring the increase in fluorescence of a gene-specific, dye-labeled oligonucleotide probe. Probes for target and reference genes were labeled at the 5′-end with a 6-carboxyfluorescein (6FAM) reporter dye and at the 3′-end with a 6-carboxy-N,N,N′,N′-tetramethylrhodamine (TAMRA) quencher dye. When the probe was annealed to the target gene, fluorescence of 6FAM was prevented by the close proximity of TAMRA. The exonuclease activity of Taq polymerase released the dyes from the oligonucleotide probe by displacing the probe from the target sequence resulting in fluorescence excitation in direct proportion to the amount of target message present. Data analysis was performed using the Sequence Detection System software from Applied Biosystems.
All primers and probes were designed using Primer Express software supplied with the 7700 Sequence Detection System and synthesized by Applied Biosystems. Standard curves using 5-fold dilutions of total RNA (from 200 ng to 320 pg) were performed to determine the efficiency of each primer/probe set in the TaqMan reaction prior to the analysis of the experimental samples. Primer/probe sets were designed from known sequences of rat genes to be analyzed. All target gene values were normalized to a reference gene, constitutively expressed cyclophilin. Primer/probe set sequences can be found in Table 8.
RNA was extracted from frozen (−80° C.) rat heart tissue using the Totally RNA Isolation Kit (Ambion, Inc., Austin, Tex.). Tissue was crushed using a stainless steel mortar and pestle, which had been chilled to −80° C. and transferred to a dounce homogenizer (Kontes, Vineland, N.J.) containing 3-10 mL cold denaturation buffer. Tissue was homogenized and transferred to a sterile, 15 mL polypropylene centrifuge tube. An equal volume of phenol:chloroform:isoamyl alcohol (25:24:1) was added, samples were shaken vigorously for 1 min, and incubated on ice for at least 15 min. Samples were centrifuged for 30 min at 10,000 g. The aqueous phase was removed, 1/10 volume of a sodium acetate solution (3.0 M NaOAc pH 4.5) was added, samples were shaken or inverted for 10 seconds, and acid-phenol (premixed with isoamyl alcohol):chloroform (5:1, Ambion, Inc.) was added at an volume equivalent to the starting sample volume. Samples were shaken vigorously for 1 min, followed by a 15-min incubation on ice, and centrifuged for 30 min at 10,000 g. The aqueous phase removed and placed in a clean polypropylene tube. An equal volume of isopropanol (Sigma, St. Louis, Mo.) was added and the samples were mixed and incubated overnight at −20° C. The samples were centrifuged for 30 min at 10,000 g, the supernatant was removed and the RNA pellet was resuspended in DNAse/RNAse-free water. Samples were frozen at −80° C. for at least 2 hours, thawed on wet ice, and diluted for quantitation.

[2] = tested on: Transforming growth factor beta 1; assay: Assay C: TGF beta 1 mRNA in left ventricle (TaqMan); details: for TGF-β, Mean: group mean; for TGF-β: individual rats
Procedure: as §1, §2, §3
Following exsanguination, hearts and kidneys were isolated, removed, rinsed in cold phosphate-buffered saline, and blotted dry. Kidneys were immediately bifurcated through the long axis with a razor blade and placed in 10% neutral buffered formalin (NBF, Richard-Allen Scientific, Kalamazoo, Mich.). For the hearts, the right ventricle (RV) was cut away from the left ventricle (LV), both ventricles were weighed using a Mettler AE163 balance (Mettler-Toledo, Inc., Hightstown, N.J.), and the RV was placed in 10% NBF. A 2 mm coronal slab of the LV apex was removed and frozen with dry ice/isopentane for analysis of gene expression and the remaining portion of the LV was placed in 10% NBF for fixation. Final wet trimming was completed after 3-4 days fixation where a second 2 mm coronal slab was removed for hydroxyproline analysis and a third 2 mm slab was removed from the equatorial region for histology.
as §4
Primers and probes were designed using Oligo Primer Analysis Software, Version 5.0 (National Biosciences Inc. (NBI)-Wojciech Rychlik, Cascade, Colo.). Primers were synthesized by Life Technologies (Grand Island, N.Y.) and probes were synthesized by Applied Biosystems. Primer/probe sets were designed from known sequences of rat genes to be analyzed. All target gene values were normalized to a reference gene, constitutively expressed cyclophilin. Primer/probe sets sequences can be found in Table 8
RNA was extracted from frozen (−70° C.) left ventricle (LV) tissue (approximately 10-20 mg) using 1.5 mL RNA-STAT 60 according to manufacturer's instructions (Leedo Medical Laboratories, Inc., Houston, Tex.). Briefly, tissues were homogenized using a tissue homogenizer equipped with a 5 mm probe (Ultra-Turrax T8 Homogenizer, IKA Works, Inc. Wilmington, N.C.). Following homogenization, an equal volume of molecular grade chloroform (Sigma Chemical Co., St. Louis, Mo.) was incubated with periodic mixing for 10 min at room temperature. Samples were centrifuged at 12,000 g for 10 min and RNA was precipitated from the top layer by adding an equal volume of molecular grade isopropanol (Sigma Chemical Co.) followed by an overnight incubation at −80° C.

[3] = tested on: aldosterone infused rats; assay: Assay B aldosterone infusion model: heart histology (vascular inflammatory lesions, myocardial injury); details: saline-drinking, uni-nephrectomized rats, 4 weeks, eplerenone 100 mpk p.o.
Procedure: Assay B: In vivo Aldosterone Infusion Model Male Sprague Dawley rats (n=39; BW=250 g) […] Uni-nephrectomy performed during implantation of mini-pumps 2. Aldosterone (0.75 mg/hr, sc via aizet minipump) 2. […] 1. […] Sacrifice after 4 weeks. Hearts were harvested and divided by half through a transverse section at the mid-ventricles: The upper half was stored into formalin. The bottom part was snap-frozen in liquid nitrogen for biochemical analysis. Hearts were stained with hematoxylin&eosin and the collagen specific dye picro-sirius red and were analyzed for determination of interstitial collagen volume fraction and morphologic abnormalities (i.e. necrosis, vascular injury).

[4] = 7 days of treatment, listed as Eplerenone + aldosterone + salt
[5] = 14 days of treatment, listed as Eplerenone + aldosterone + salt
[6] = 30 days of treatment, listed as Eplerenone + aldosterone + salt
[7] = 7 days of treatment, listed as Aldosterone + salt
[8] = 14 days of treatment, listed as Aldosterone + salt
[9] = 30 days of treatment, listed as Aldosterone + salt

For `COC(=O)[C@@H]1CC2=CC(=O)CC[C@]2(C)[C@@]23O[C@@H]2C[C@@]2(C)[C@@H](CC[C@@]24CCC(=O)O4)[C@H]13` [eplerenone, Pregn-4-ene-7,21-dicarboxylic acid, 9,11-epoxy-17-hydroxy-3-oxo-, γ-lactone, methyl ester, (7α, 11α, 17β) -], the “VCAM, Mean” value ([1]; 7 days of treatment) was 0.56 AU, the “VCAM, Mean” value ([1]; 14 days of treatment) was 0.83 AU and the “VCAM, Mean” value ([1]; 30 days of treatment) was 1.04 AU. For the same molecule, the VCAM [1, 4] was 0.67 AU and 0.58 AU and 0.22 AU and 0.57 AU and 0.53 AU and 1.00 AU, the VCAM [1, 5] was 0.54 AU and 0.66 AU and 0.61 AU (2×) and 0.67 AU and 0.86 AU and 1.00 AU and 0.68 AU (2×) and 1.60 AU and the VCAM [1, 6] was 0.79 AU and 0.52 AU and 0.57 AU and 0.61 AU. For the same molecule, the “VCAM-1 mRNA expression in myocardium” value ([1]; time course 7, 14, 30 days, eplerenone 100 mg/kg/day) was “significantly reduced; also recorded: inhibition of early time-course expression of myocardial ICAM-1 and VCAM-1”, the “TGF-β, Mean” value ([2]; 7 days of treatment) was 0.99 AU and the “TGF-β, Mean” value ([2]; 14 days of treatment) was 1.26 AU. The “TGF-β, Mean” value ([2]; 30 days of treatment) was 1.32 AU, the TGF-β [2, 4] was 0.80 AU (2×) and 0.81 AU and 0.51 AU and 0.61 AU and 0.84 AU and the TGF-β [2, 5] was 0.58 AU and 0.62 AU and 1.04 AU and 0.71 AU and 1.21 AU and 2.41 AU. For the same molecule, the TGF-β [2, 6] was 1.00 AU and 1.40 AU and 0.96 AU and 1.93 AU and 0.89 AU and the “Vascular inflammatory changes / myocardial injury” value [3] was “completely prevented the vascular inflammatory changes; also recorded: prevention by eplerenone of myocardial injury”.
With `C[C@]12CCC(=O)C=C1CC[C@@H]1[C@@H]2[C@@H](O)C[C@]2(C=O)[C@@H](C(=O)CO)CC[C@@H]12` [aldosterone] the “VCAM-1 gene expression increase” value ([1]; day 30 of aldosterone+salt treatment, did not reach statistical significance) was “increased two-fold”, the “VCAM, Mean” value ([1]; 30 days of treatment) was 2.14 AU and the VCAM [1, 7] was 0.85 AU and 0.61 AU and 0.94 AU and 0.27 AU. The VCAM [1, 8] was 0.89 AU and 0.69 AU and 0.84 AU and 0.72 AU, the VCAM [1, 9] was 0.72 AU and the “TGF-β, Mean” value ([2]; 30 days of treatment) was 1.33 AU. For the same molecule, the TGF-β [2, 7] was 0.98 AU and 1.47 AU and 1.21 AU, the TGF-β [2, 8] was 0.55 AU and 1.27 AU and 0.56 AU and the TGF-β [2, 9] was 1.27 AU and 1.20 AU and 0.83 AU and 0.54 AU. For the same molecule, the “Vascular inflammatory changes / myocardial injury” value [3] was “severe vascular inflammatory lesions”.
